Values joined by “and” are separate entries in the source; they are usually repeats but may differ in a detail not shown here. Equal values may be shown once. “Also recorded” adds a separate entry of the source. Read-outs that look alike come from different tables or passages of the source.
Columns and labels:
[1] = Cytotoxic evaluation on the Hela cell line (MTT assay); type: cell-based; conditions: human, Hela cells
Protocol: The evaluation of the tested molecules’ cytotoxicity on the Hela cell line was conducted according to the method of Mosman with slight modifications. Briefly, cells (1 × 10^5 cells/mL) in 100 µL of complete medium, (MEM supplemented with 10% fetal bovine serum, 2 mM L-glutamine and antibiotics (100 U/mL penicillin and 100 µg/mL streptomycin) were seeded into each well of the 96-well plates and incubated at 37 °C and 5% CO2. After a 24 h incubation, 100 µL of medium with various product concentrations and appropriate controls were added and the plates were incubated for 72 h at 37 °C and 5% CO2. Each plate-well was then microscope-examined to detect possible precipitate formation before the medium was aspirated from the wells. MTT solution (100 µL, 0.5 mg/mL in RPMI) was then added to each well. Cells were incubated for 2 h at 37 °C and 5% CO2. After this time, the MTT solution was removed and DMSO (100 µL) was added to dissolve the resulting formazan crystals. Plates were shaken vigorously (300 rpm) for 5 min. The absorbance was measured at 570 nm with a microplate spectrophotometer (Eon BioTek). DMSO was used as blank and doxorubicin (purchased from Sigma Aldrich) as positive control. CC50 were calculated by non-linear regression analysis processed on dose response curves, using TableCurve 2D V5 software (San Jose, CA, USA). CC50 values represent the mean value calculated from three independent experiments.

NQO2 = molecular target: T1, NQO2 (Homo sapiens, UniProt P16083); experiment: EPR measurement of free radicals (ROS) produced after metabolism by NQO2; type: biochemical; conditions: for radical production after reduction by NQO2: EPR with DMPO spin trap; for ROS after NQO2 Reduction: purified NQO2 20 µg/mL, compound 125 µM, BNAH 1 mM, DMPO 125 mM, grades - to + + + + +; for radical production after adding the specific NQO2 inhibitor S29434: S29434 30 µM
T1 construct: The experiments were conducted with purified enzyme NQO2 (20 µg/mL)
T1 sequence (P16083 1-231): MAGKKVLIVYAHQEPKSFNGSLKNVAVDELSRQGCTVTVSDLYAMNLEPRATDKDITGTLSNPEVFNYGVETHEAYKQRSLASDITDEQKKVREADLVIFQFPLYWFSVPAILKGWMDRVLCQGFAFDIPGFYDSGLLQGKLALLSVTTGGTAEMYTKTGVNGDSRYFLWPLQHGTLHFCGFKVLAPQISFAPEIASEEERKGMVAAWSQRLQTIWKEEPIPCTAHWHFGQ
Protocol: As in previous work, we used an indirect assay to characterize the substrates. […] Using the capacity of NQO2 to reduce quinones into hydroquinones or quinols, we incubated the substrate candidates with the enzyme and its co-substrate, a synthetic hydride donor, N-benzyldihydronicotinamide. […] Thus, using an EPR-based assay, it was possible to evaluate the potency of the process by quantifying those bursts by measuring for the presence of free radicals. The rationale of the process was based on the simple idea that such substrates would generate bursts of ROS, which are particularly toxic for infected red cells.
We measured the ability of the selected compounds to produce superoxide radicals during the redox cycle of NQO2 by EPR spectroscopy. The following compounds were used as molecular tools: Menadione (Figure 1) as a reference compound and NQO2 substrate, S29434 as a specific NQO2 inhibitor [17] and dimethyl-pyrroline-N-oxide (DMPO) as a spin trap reagent to characterize ROS.
The experiments were conducted with purified enzyme NQO2 (20 µg/mL), DMPO (125 mM), tested compounds (125 µM) and BNAH (1 mM). For inhibition assays, we added S29434 (30 µM). All analyses were performed at room temperature. EPR spectra were recorded with a Bruker EMX-8/2.7 (9.86 GHz) with a high-sensitivity cavity (4119/HS 0205) and a gaussmeter (Bruker, Wissembourg, France), at X-band. For analyses, we used a flat quartz cell, FZKI160-5 × 0.3 mm (Magnettech, Berlin, Germany). We performed data processing and spectrum acquisition with WINEPR software (Bruker). Scanning parameters were: Number of scans, 5; magnetic field, 3460–3560 G; sweep width, 100 G; scan rate, 1.2 G/s; modulation amplitude, 1 G; sweep time, 83.88 s; time constant, 40.96 ms; modulation frequency, 100 kHz; and microwave power, 20 mW. The EPR spectra were analyzed as reported previously. The EPR spectrum was presented with the magnetic field on the x-axis in gauss (g) and the intensity of the peaks on the y-axis in arbitrary units (a.u.).

[2] = system: P. falciparum strain FcB1; experiment: In vitro antiplasmodial activity, SYBR Green I-based fluorescence assay; type: cell-based, Plasmodium falciparum
Protocol: The in vitro anti-malarial activity was investigated using the SYBR Green I-based fluorescence assay. The asexual intra-erythrocytic stage of P. falciparum laboratory strain FcB1 (chloroquine-resistant strain) was maintained in RPMI 1640 medium containing l-glutamine 200 µM, Hepes 25 mM and 5% human serum (Etablissement Français du Sang—EFS, Toulouse, France). For anti-malarial drug assays, stock solutions of compounds were diluted serially in RPMI 1640 culture medium to test final concentrations between 0.001 and 1 µg/mL in triplicates in a 96-well plate. The final concentration of DMSO was 0.5%. A suspension of sorbitol-synchronized, infected red blood cells (iRBCs) was adjusted to 1% parasitemia and 2% hematocrit in complete medium and added to the wells. Negative controls were prepared with a suspension of iRBCs and 0.5% DMSO. Chloroquine was used as the positive control. Test plates were incubated at 37 °C for 48 h. Afterwards, 100 μL SYBR Green I fluorescent lysis buffer were added to each well and incubated in a dark place at room temperature for 2 h. Fluorescence data were acquired using a fluorescence plate reader (BMG Fluostar Galaxy Labtech) with excitation and emission wavelengths at 485 nm and 518 nm, respectively. The fluorescence values (after subtraction of the background fluorescence of the non-parasitized RBCs) were plotted against the log of the drug concentration, and analyzed by non-linear regression (sigmoidal dose response/variable slope equation) to yield the IC50 (50% inhibitory concentration) that served as a measure of the anti-malarial activity.

P. berghei ANKA = experiment: Four-days suppressive test, P. berghei ANKA mice model (cerebral malaria); type: in vivo, Plasmodium berghei ANKA in Swiss mice; conditions: for survival rate on D10: 50 mg/kg intraperitoneal D0 to D3, D10
Protocol: (§1) As previously described, the four-days suppressive standard test described by Knight and Peters was used to evaluate antimalarial activity of Compounds 1 and 3. P. chabaudi chabaudi (Pcc) and P. berghei ANKA (PbA) infections in Swiss mice were used as experimental models for uncomplicated and cerebral malaria, respectively. […] On the first day (D0), mice were inoculated intraperitoneally with 0.2 mL of infected blood containing about 1 × 10^6 parasitized erythrocytes. […] All mice groups were treated similarly for four consecutive days (D0–D3). Weight, parasitemia and survival were followed daily. To follow peripheral parasite density, thin blood smears were made daily from tail blood from D3 to D14. Blood smears were fixed with methanol and stained with a fast-acting variation of the May–Grünwald Giemsa staining (RAL 555 kit, RAL diagnostics). Average percentage chemosuppression was calculated at D8 for both infection models as ((A − B)/A) × 100 where A is the average percentage parasitemia in the negative control group and B is the average percentage parasitemia in the test group. Survival was monitored twice daily. The percentage survival was determined over a period of 21 days (D0–D20) and compared between groups.

[3] = Acute toxicity in healthy Swiss mice; type: in vivo; conditions: for weight variation compared to the vehicle control group: healthy Swiss mice, 50 mg/kg intraperitoneal, Days 7, 14 and 20; for mortality or major behavioral changes: mouse, in vivo, ip, 50 mg/kg
Protocol: Compounds 1 and 3 were diluted in 50% DMSO and tested at 50 mg/kg. Protocols used for acute oral toxicity measurement were previously described. Briefly, mice were randomly divided into three groups of three mice and treated once a day from D0 to D3 by the intraperitoneal route with 200 µL of Compound 1 or Compound 3 at 50 mg/kg, or DMSO 50%.

P. chabaudi chabaudi = experiment: Four-days suppressive test, P. chabaudi chabaudi mice model (uncomplicated malaria); type: in vivo, Plasmodium chabaudi chabaudi in Swiss mice; conditions: for Pcc parasite density compared to DMSO treatment: 50 mg/kg intraperitoneal D0 to D3, D8 (peak of parasitemia), p < 0.0001; for weight development at D11 after Pcc infection: 50 mg/kg intraperitoneal D0 to D3, D11; for death after Pcc infection: 50 mg/kg intraperitoneal D0 to D3, monitored 13 days
Protocol: as §1, with “The percentage survival was determined over a period of 21 days (D0–D20) and compared between groups.” left out

[4] = Plasmodium falciparum, FCB1, 48 h, P. falciparum FcB1 (chloroquine-resistant strain), 48 h, read-out: IC50
[5] = 50 mg/kg intraperitoneal D0 to D3
[6] = 50 mg/kg intraperitoneal D0 to D3, D8

| SMILES | CC50 at 72 h [1] [nM] | radical production after reduction by NQO2 (NQO2) | TI (Therapeutic Index = CC50/IC50) [2] | IC50 [2, 4] [nM] | ROS after NQO2 Reduction (NQO2; EPR, key not given) | radical production after adding the specific NQO2 inhibitor S29434 (NQO2; EPR) | other results |
| --- | --- | --- | --- | --- | --- | --- | --- |
| COc1ccc2c(c1)C1=C(C(=O)C2=O)C(C)(C)C(C)O1 (stereo not shown) [Compound 2] | 1250 ± 160 | no radicals were detected | 2.15 | 630 to 850 |  |  | IC50 ([2]; P. falciparum FcB1 (chloroquine-resistant strain), 48 h, read-out: IC50): 580 ± 503 nM |
| COc1ccc2c(c1)C(=O)C1=C(OC(C)C1(C)C)C2=O (stereo not shown) [Compound 5] | 14900 ± 3230 | no radicals were detected | 9.81 | 1520 ± 853 |  |  | CC50 values fold higher than the IC50 value [2]: 8-9 fold |
| COc1ccc2c(c1)C(=O)C1=C(OC(C)(C)CC1)C2=O [Compound 6] | > 18400 | produced radicals | >0.94 | 19500 ± 7090 | + + + |  | ROS after Inhibition of NQO2 with S29434 (NQO2; EPR, as above plus S29434 30 µM, grades - to + +, key not given): + + |
| COc1ccc2c(c1)C1=C(CCC(C)(C)O1)C(=O)C2=O [Compound 7] | 1660 ± 368 | no radicals were detected | 2.21 | 753 ± 484 |  |  |  |
| COc1cccc2c1C(=O)c1c(O)c3c(c(O)c1C2=O)C[C@@](O)(C(=O)CO)C[C@@H]3O[C@H]1C[C@H](N)[C@H](O)[C@H](C)O1 [Doxorubicin, doxorubicin, reference compound] | 311 ± 478 |  |  |  |  |  |  |
| COc1ccc2c(c1)C(=O)C(=O)C1=C2OC(C)C1(C)C (stereo not shown) [Compound 3] | 1430 ± 314 | produced radicals; also recorded: induced a production of ROS | 1.70 | 845 ± 334 | + + + | decreased | effect on weight loss and parasitemia during PbA infection (P. berghei ANKA; [5]): did not limit either weight loss or parasitemia; survival rate on D10 (P. berghei ANKA): 100%; weight variation compared to the vehicle control group [3]: similar; mortality or major behavioral changes [3]: did not cause mortality or major behavioral changes; % inhibition of parasite density at D8 (P. chabaudi chabaudi; [6]): 90.6% and 74.8%; Pcc parasite density compared to DMSO treatment (P. chabaudi chabaudi): highly reduced; weight development at D11 after Pcc infection (P. chabaudi chabaudi): lost more weight than other groups; death after Pcc infection (P. chabaudi chabaudi): did not cause any death; efficacy on parasite density compared to the CQ treatment (P. chabaudi chabaudi; 50 mg/kg intraperitoneal vs CQ, D8): less effective |
| CC1=CC(=O)c2ccccc2C1=O [Menadione, menadione, reference compound] |  |  |  |  | + + + + + |  |  |
| COc1cccc2c1C1=C(C(=O)C2=O)C(C)(C)C(C)O1 (stereo not shown) [Compound 1] | 2420 ± 905 | produced radicals; also recorded: induced a production of ROS | 3.83 | 633 ± 740 | + + | decreased | effect on weight loss and parasitemia during PbA infection (P. berghei ANKA; [5]): did not limit either weight loss or parasitemia; superiority over DMSO (survival) (P. berghei ANKA; [5]): statistically significant until D15; survival rate on D10 (P. berghei ANKA): 80%; weight variation compared to the vehicle control group [3]: similar; mortality or major behavioral changes [3]: did not cause mortality or major behavioral changes; % inhibition of parasite density at D8 (P. chabaudi chabaudi; [6]): 74.8% and 90.6%; Pcc parasite density compared to DMSO treatment (P. chabaudi chabaudi): highly reduced; weight development at D11 after Pcc infection (P. chabaudi chabaudi): lost more weight than other groups; death after Pcc infection (P. chabaudi chabaudi): did not cause any death |
| COc1ccc2c(c1)C(=O)C1=C(C2=O)C(C)(C)C(C)O1 (stereo not shown) [Compound 4] | 11800 ± 2200 | produced radicals | 8.53 | 1380 ± 627 | + + + | decreased | CC50 values fold higher than the IC50 value [2]: 8-9 fold |
| CCN(CC)CCCC(C)Nc1ccnc2cc(Cl)ccc12 (stereo not shown) [Chloroquine, chloroquine, reference compound] |  |  |  |  |  |  | % inhibition of parasite density at D8 (P. chabaudi chabaudi; chloroquine 10 mg/kg intraperitoneal D0 to D3, D8): 98.2%; IC50 ([2]; Plasmodium falciparum, FCB1, 48 h): 0.164 ± 0.055 nM |

Reference: publication PMC6832513, “Antimalarial Properties of Dunnione Derivatives as NQO2 Substrates” (Molecules, 2019)
